Consider 2 compounds from patent US20230364063A1, “ORAL PHARMACEUTICAL COMPOSITION AND METHOD FOR PRODUCING SAME” (ARTham Therapeutics Inc., priority 2020, published 2023).

The conditions of data set [1]: cited from earlier work.
The conditions of data set [2]: cited from earlier work. The source holds these as a separate data set.
Data set [3] can be described thus: pH-dependent dissolution profile (equilibrium solubility) of ART-001 in buffers pH 1 to 10, HPLC. As to conditions: for solubility: aqueous buffer, thermodynamic from solid, room temperature. The data set is classed as physicochemical. As for the experimental part:
The dissolution profile of ART-001 in various pH environments was tested by the following procedure. Excess amounts of ART-001 were added to 50 mM phosphate buffer (pH 1, 2, 7, and 8), citrate buffer (pH 3, 4, 5, and 6), boric acid buffer (pH 9), and bicarbonate buffer (pH 10), with the pH adjusted variously in the range of from pH 1 to pH 10 with a 6N HCl or 10N sodium hydroxide solution, and stirred at room temperature. When the dissolved state reached equilibrium, a fixed amount of each sample was taken. After centrifugation at 1000 rpm for 10 minutes, the supernatant was collected and measured by HPLC. The pH at the beginning and end of dissolution were also measured and recorded.

For data set [4] the following is noted: cited from earlier work. The source holds these as a separate data set.
The subject of a further data set is advanced solid tumors. As to conditions: Phase I, patients with advanced solid tumors; cited from earlier work.
For data set [5] the following is noted: healthy adults, cited from earlier work.

Converted amounts (≈) assume the structure as drawn. Like-named read-outs stand apart in the source and are kept apart here.

In the case of `Cc1nc(NC(=O)N2CCC[C@H]2C(N)=O)sc1-c1ccnc(C(C)(C)C(F)(F)F)c1` [alperisib, Alpelisib], the solubility result in data set [1] is “pH-dependent solubility”. In addition, in data set [2], the “pharmacokinetics in clinical studies” value is listed as “variations in pharmacokinetics”.

`Nc1nc2cc(-c3ccc4ncc(C(=O)N5CCOCC5)n4c3)ccc2o1` [ART-001, Serabelisib]: the solubility was 2.18 µg/mL (≈ 6 µM) in data set [3] (bicarbonate buffer, start pH 10.00, end pH 10.07, read-out: Solubility); 1.3 µg/mL (≈ 3.58 µM) in data set [3] (boric acid buffer, start pH 9.00, end pH 9.16, read-out: Solubility); 36.8 µg/mL (≈ 101 µM) in data set [3] (citrate buffer, start pH 3.17, end pH 3.33, read-out: Solubility); 5.7 µg/mL (≈ 15.7 µM) in data set [3] (citrate buffer, start pH 4.00, end pH 4.19, read-out: Solubility); 1.7 µg/mL (≈ 4.68 µM) in data set [3] (citrate buffer, start pH 5.03, end pH 5.2, read-out: Solubility); 1.3 µg/mL (≈ 3.58 µM) in data set [3] (citrate buffer, start pH 5.95, end pH 6.11, read-out: Solubility). Also, the solubility was 1.3 µg/mL (≈ 3.58 µM) in data set [3] (citrate, phosphate, boric acid and bicarbonate buffers, pH 6 or higher, read-out: solubility under high pH conditions); 312 to 10000 µg/mL (≈ 859 to 27500 µM) in data set [3] (phosphate buffer, pH 2.5 or lower, read-out: solubility under low pH conditions); 1140 µg/mL (≈ 3130 µM) in data set [3] (phosphate buffer, start pH 1.04, end pH 1.33, read-out: Solubility); 312 µg/mL (≈ 859 µM) in data set [3] (phosphate buffer, start pH 2.09, end pH 2.56, read-out: Solubility); 1.2 µg/mL (≈ 3.3 µM) in data set [3] (phosphate buffer, start pH 6.81, end pH 6.97, read-out: Solubility); 1.3 µg/mL (≈ 3.58 µM) in data set [3] (phosphate buffer, start pH 8.15, end pH 8.3, read-out: Solubility). In data set [3] (pH 6 or higher vs pH 2.5 or lower), the “solubility under high pH conditions when the solubility under low pH conditions is considered to be 100%” value was “about 4%”. Further, in data set [4] (acidic solutions), the “solubility in acidic solutions” value was “high solubility”. Besides, the “solubility in neutral to basic solutions” value in data set [4] (neutral to basic solutions) is recorded as “extremely low solubility”. Moreover, in the data set on advanced solid tumors, the therapeutic efficacy entry is “limited therapeutic efficacy”. The variability in pharmacokinetics result with advanced solid tumors is “high degree of variability”. The “absorption of ART-001” value in data set [5] (co-administration of proton pump inhibitor (lansoprazole), stomach pH neutral) is listed as “markedly decreased”. For the same compound, the pharmacokinetic variability entry in data set [5] is reported as “significant pharmacokinetic variability”.
